Values joined by “and” are separate entries in the source; they are usually repeats but may differ in a detail not shown here. Identical values can stand only once.
Assays:
Type in all cases: in vivo
[1] = system: Cotton aphid (Aphis gossypii); assay: Cotton aphid leaf dip test (CA H43); settings: mixed life stages
Experimental: (§1) Test compounds were prepared and formulated into aqueous formulations using acetone. The formulations were tested using the following target species: • SAW-L52-PRODER (southern armyworm), 2ND-3RD Instar Larvae, Leaf Dip, 4 days • CA-H43-APHIGO (cotton aphid), Mixed Life Stages, Leaf Dip • BA-H40-APHIFA (black bean aphid), Mixed Life Stages, Plant Drench • GPA-H52-MYZUPE (green peach aphid), Mixed Life Stages, Leaf Dip • SLWF-H45-BEMIAR (silver leaf whitefly), Adult, Leaf Dip • TSMR-A42-TETRUR (two-spotted spider mite, P-resistant origin), Mixed Life Soges, Leaf Dip
Test Procedures for Cotton aphid (Aphis gossypii) (CA—leaf dip):
Selected cotton plants to the cotyledon stage (one plant per pot). Placed one heavily infested cotyledon pair, hosting approximately 100 laboratory-reared aphids, an top of each test plant. Allowed the aphids to transfer to the test plants (overnight). Removed the drying cotyledons from the test plants prior to dipping.
Prepared test solutions as needed in 50:50 acetone: water and 100 ppm Kinetic® surfactant. Dipped the infested leaves of the intact plant into the test solution to provide complete coverage of the leaf surfaces. Placed in a well-vented area to dry.

Bean aphid (Aphis fabae) = assay: Bean aphid test on nasturtium seedlings (BA H40); design: key to BA H40 observation (feeding): R = Reduced feeding, regardless of cause (e.g., repellent effects); settings: 3 days; for BA H40 activity rating: mixed life stages
Experimental: as §1
Test Procedures for Bean aphid (Aphis fabae) (BA—Foliar):
Transferred approximately 5-day-old nasturtium seedlings (at the state of unfolded cotyledons), grown in Metro mix in propagation trays in the greenhouse, to Rootcubes, which were held in propagation trays Pressed the seed (still attached to the seedling) in the central depression of each cube. Held transferred seedlings for approximately 3 days in the greenhouse for expansion of the cotyledons.
In the insecticide screening laboratory, infested the seedlings. Positioned a paint roller screen above the 72 plants in each tray so that the screen was in contact with the foliage of the test plants. Spread approximately 50 infested nasturtium stems and leaves (from approximately 2-3 peat pots of insectary-reared aphids) an each screen. Kept the trag with the seedlings sitting in about ½ in. water overnight in the laboratory (leaving lights in lab on). Migration of aphids to the test plants occurred by morning. Removed the screen with drying leaves from the trays of test plants and discarded the leaves.
Prepared test solutions as needed in 50:50 acetone:water and 100 ppm Kinetic® surfactant. Selected plants to dip that had approximately 2-30 aphids per plant. Dipped each plant into the test solution to provide complete coverage of the foliage, stem, protruding seed surface and surrounding cube surface. Kept treated plants in the fume hood to dry. For routine screening, used one plant/treatment.
Placed treated plants in bioassay trays, 1 plant/well. Added water to fill each well. This allowed the plants to be watered from the roots, not interfering with the foliar treatment, and reduced potential migration of aphids between treatments. Kept treated plants at room temperature an the insecticide screening lab bench with continuous fluorescent light for 3 days.

[2] = system: Green peach aphid (Myzus persicae); assay: Green peach aphid leaf dip test (GPA H52); settings: pepper, mixed life stages, five days
Experimental: as §1
Test Procedures for GPA—Green peach aphid (Myzus persicae)—Leaf Dip:
Selected pepper plants (one plant per pot) in the second leaf-pair stage, with the 1st leaf-pair measuring 6-10 cm from tip to tip. Removed the cotyledons. Placed infested pepper leaves or leaf sections on top of the test plants, allowing for approximately 60 laboratory-reared aphids per plant. Allowed the aphids to transfer from the leaf sections to the test plants (overnight) to reach a density of at least 40 aphids per plant, then removed the leaf sections.
Prepared test solutions as needed in 50:50 acetone:water and 100 ppm Kinetic® surfactant (STP#1A). Dipped the leaves of the infested plant into the test solution to provide complete coverage of the leaf surfaces. Placed in a well-vented area to dry. Test plants were maintained under fluorescent light (24 hour photoperiod) at 25±2° C. and 20-40% relative humidity for five days, at which time aphid survival was determined (see Table 1a).

[3] = system: Two-spotted spider mite (Tetranychus uriticae), P-resistant origin; assay: Two-spotted spider mite leaf dip test (TSMR A42); settings: 300 ppm, lima bean, mixed life stages, five days
Experimental: as §1
Test Procedures for Two-spotted spider mite (Tetranychus uriticae) TSM—leaf-dip:
Selected lima bean plants (one plant per pot), grown to the first leaf pair with a span of 7-12 cm. Placed sections of a heavily infested leaf (laboratory reared mites) an the test plants. Allowed the mites to transfer from the leaf sections to the test plants (at least two houss) to provide at least 100 mites per leaf. Removed the leaf sections from the test plants prior to dipping.
Prepared test solutions as needed in 50:50 acetone:water and 100 ppm Kinetic® surfactant. Dipped the infested leaves of the intact plant into the test solution to provide complete coverage of the leaf surfaces. Placed in a well-vented area to dry. […]

Structure (SMILES)	CA H43 activity rating ([1]; 10 ppm)	CA H43 activity rating ([1]; 100 ppm)	CA H43 activity rating ([1]; 300 ppm)	BA H40 activity rating (Bean aphid (Aphis fabae); 10 ppm)	BA H40 observation (feeding) (Bean aphid (Aphis fabae); 100 ppm)	BA H40 activity rating (Bean aphid (Aphis fabae); 100 ppm)	BA H40 observation (feeding) (Bean aphid (Aphis fabae); 300 ppm)	BA H40 activity rating (Bean aphid (Aphis fabae); 300 ppm)	GPA H52 activity rating ([2]; 10 ppm)	GPA H52 activity rating ([2]; 100 ppm)	GPA H52 activity rating ([2]; 300 ppm)	TSMR A42 activity rating [3]
C#CCNS(=O)(=O)c1cnccc1C(F)(F)F [Compound 1, 4-Trifluoromethyl-pyridine-3-sulfonic acid prop-2-ynylamide]	0 (0 = 0-25% reduction of live population vs. check)	8 (8 = 86-99% reduction of live population vs. check)	8 (8 = 86-99% reduction of live population vs. check)	0^ (0 = 0-25% reduction of live population vs. check)	R	5 (5 = 50-74% reduction of live population vs. check)	R	8 (8 = 86-99% reduction of live population vs. check)	0 (0 = 0-25% reduction of live population vs. check)	7 (7 = 75-85% reduction of live population vs. check)	8 (8 = 86-99% reduction of live population vs. check)	0 (0 = 0-25% reduction of live population vs. check)
N#CCNS(=O)(=O)c1cnccc1C(F)(F)F [Compound 2, 4-Trifluoromethyl-pyridine-3-sulfonic acid cyanomethyl-amide]	0 (0 = 0-25% reduction of live population vs. check)	8 (8 = 86-99% reduction of live population vs. check)	9 (9 = 100% reduction of live population vs. check)	0^ (0 = 0-25% reduction of live population vs. check)	R	0 (0 = 0-25% reduction of live population vs. check)	R	7 (7 = 75-85% reduction of live population vs. check)	0 (0 = 0-25% reduction of live population vs. check)	3 (3 = 25-49% reduction of live population vs. check)	8 (8 = 86-99% reduction of live population vs. check) and 5 (5 = 50-74% reduction of live population vs. check)	0 (0 = 0-25% reduction of live population vs. check)

— US7365042B2, “Pyridine-3-sulfonyl compounds as pesticidal agents” (BASF Aktiengesellschaft, priority 2002, dated 2008)
